Assay results reported in US11447533B2, “Antimicrobial and anticancer peptides and conjugates and compositions, methods, articles and kits relating thereto” (George Mason Research Foundation, Inc., priority 2018, dated 2022).

What was measured:
[1] = test system: E. coli ATCC 25922; experiment: Antimicrobial efficacy (resazurin virtual colony count); assay type: cell-based, Escherichia coli
Experimental: (§1) Antimicrobial Studies. The phosphate buffers used for antimicrobial assays were supplemented with non-nitrogenous energy source, 0.1% (w/v) glucose. To conduct antimicrobial assays, bacterial strains were first suspended in respective buffers. E. coli (ATCC 25922) and B. cereus (ATCC 11778) were grown in MHB II up to OD600 nm˜1 and stored as frozen stock in 20% glycerol at −80° C. Occasionally they were thawed and enumerated by serial dilution and spreading on MHB II agar plates. The concentrations of the frozen stocks of E. coli and B. cereus strains were 1.0-1.1*10^8 CFU/mL with OD600 nm˜0.8. In case of other bacterial strains, they were grown on the days of experiment up to OD600 nm˜1-1.5 and then adjusted to OD600 nm˜0.8. The growth media of the drug-resistant bacterial strains were supplemented with few of the respective antibiotics against which they are resistant. 200 μL of the 0.8 OD600 nm culture were added to 10 mL of the respective buffer to obtain a suspension which was used to incubate with equal volumes of peptide solution in the same buffer.
(§2) Antimicrobial assays in different phosphate buffers and serum were conducted by adapting, with necessary modifications a fast high-throughput method based on Virtual Colony Count technique and later modified by incorporating the use of resazurin. At first serial dilution of a microbial strain in respective buffer was poured in the wells of 96 well polypropylene microplate and was then added with same volume of 2× MHB II supplemented with 80 μg/mL resazurin and incubated at 35° C. in a Gemini EM Microplate Reader (Molecular Devices) overnight with intermittent shaking. As the microbe grows it reduces non-fluorescent resazurin to fluorescent resorufin and the fluorescent intensity of each well were measured (excitation=570 nm, emission=590 nm) each 5 min for 15 hours. The time (t, min) to reach a certain fluorescence (RFU=20000 with respect to the starting fluorescence) was correlated with the initial bacterial concentration (in CFU/mL) in the particular well to obtain a calibration plot of the form: Log([Bacteria],CFU/mL)=b+m*t Equation 4: […]
(§3) To obtain antimicrobial efficacy of the peptides, 50 μL of serially diluted peptide in a buffer was incubated with 50 μL microbial suspension in the same buffer for 3 hours in black polypropylene 96 well plate. After incubation the wells were added with 100 μL of 2× MHB II supplemented with 80 μg/mL resazurin and then incubated with continuous fluorescence reading for overnight time period as described earlier. The surviving microbial population (CFU/mL) in each well were calculated by first finding the time to reach a fluorescence of RFU=20000 and the correlation (4) for the specific microbial strain and buffer. % Survival represents the proportion of viable cells in peptide treated cells relative to cells treated with the respective buffer alone. Equation 5: […]
Finally, the antimicrobial effectiveness of each peptide against the particular microbial strain in the specific buffer was determined by plotting % microbial survival as a function of the log of the concentration of the peptide and fitting the resulting data to a variable-slope sigmoidal regression model (equation 6). In this equation, log(EC50) represents the log of the concentration of the peptide required to kill half of the microbial population, where Smin and Smax correspond to the minimal and maximal microbial survival values (respectively), and H, Hill slope, is the parameter defining the steepness of the transition slopes of sigmoidal survival curves. % Microbial survival=Smin+(Smax−Smin)/(1+10^log(EC^50^)-log[peptide]*H) Equation 6: […]
The antimicrobial efficacies of the peptides were first tested against the model Gram-negative bacteria, E. coli ATCC 25922, in different phosphate buffers having varied ionic strengths and compositions. The phosphate buffers that were used included 10 mM sodium phosphate (calculated ionic strength˜25 mM), PBS and DPBS. […]

[2] = test system: Pseudomonas aeruginosa; experiment: Antimicrobial efficacy against ESKAPE pathogens; assay type: cell-based; conditions: mammalian serum
Experimental: as §1, §2, §3
Finally, the antimicrobial effectiveness of each peptide against the particular microbial strain in the specific buffer was determined by plotting % microbial survival as a function of the log of the concentration of the peptide and fitting the resulting data to a variable-slope sigmoidal regression model (equation 6). […]
ATRA1-R3W2-HYD, NA-CATH and PMB were evaluated for their effectiveness in mammalian serum conditions against pathogenic bacteria of both normal and drug-resistant strains. […]

[3] = test system: primary lung epithelium cells; experiment: Cytotoxicity (Alamar blue); assay type: cell-based, human
Experimental: FIGS. 11A-11B are graphs showing cytotoxicity against primary lung epithelium cells in serum-free condition. Cells were seeded in complete growth medium (Minimal essential medium supplemented with 10% fetal bovine serum) at near-confluence into a 96-well plate and allowed to settle for 24-hours. Media was then replaced to OptiMEM I reduced serum medium containing peptide or vehicle alone (DBPS) and cells were incubated overnight (16 hours). A resazurin based dye (Alamar blue) was added directly to media and conversion of resazurin to resorufin was evaluated following two hours. % Survival represents the proportion of viable cells in peptide treated cells relative to cells treated with vehicle alone. […] Each peptide was tested in triplicate.
FIG. 12 is a graph showing comparison of toxicities against Lung Primary Epithelial cells and Lung Cancerous Epithelial Cells, derived from H358 cell-line. […] Each peptide was tested in triplicate.
Cytotoxicity. Cells were seeded in complete growth medium (Minimal Essential Medium, MEMα, supplemented with 10% Fetal Bovine Serum) into a culture-treated 96-well plate at a density of 25000 cells per well. After 24 hours, culture media was aspirated and replaced with media containing the selected peptide. No-serum experiments were conducted in Opti-MEM I reduced serum media (ThermoFisher, 31985062) and 10% serum experiments were performed in complete growth medium. In all cases, DBPS was used as a vehicle only control and buffer to serially dilute the peptides. After exposure to the peptides or vehicle-alone for the defined period, Alamar blue dye (resazurin) was added directly to the media and allowed to incubate for two hours. Following incubation, A570/A600 measurements were made to calculate reduction of resazurin dye to resorufin. A ratio of reduction in treated versus untreated cells was calculated in order to determine overall cell viability. The human cells were always maintained in a 37° C. incubator under 5% CO2.

[4] = test system: B. cereus ATCC 11778; experiment: Antimicrobial efficacy (resazurin virtual colony count); assay type: cell-based, Bacillus cereus; conditions: DPBS
Experimental: as §1, with “200 μL of the 0.8 OD600 nm culture were added to 10 mL of the respective buffer to obtain a suspension which was used to incubate with equal volumes of peptide solution in the same buffer.” left out
as §2

[5] = test system: E. coli ML35p outer membrane; experiment: Outer membrane disruption (β-lactamase leakage, nitrocefin); assay type: cell-based, Escherichia coli; conditions: DPBS; HCMAB = 100%
Experimental: (§4) Interactions with Bacterial Membranes. Interaction of the peptides with bacterial membranes in different phosphate buffers were evaluated using E. coli ML35p, constructed in our laboratory. At first, competent cells of E. coli ML35 were produced by conventional competent cell preparation method, then transformed with pBR322 plasmid. Transformed colonies were selected after growing on Luria-agar containing 50 μg/mL ampicillin. A single transformed colony was grown in presence of ampicillin first in Luria broth and then in MHBII and stored as 20% glycerol stock at −80° C. This frozen stock, on the day of the experiment, was thawed and grown in MHBII containing ampicillin up to OD600 nm=0.8-0.9, washed with PBS and then suspended in the respective buffer up to the required OD600 nm for use.
Membrane Disruptions. The outer and the inner membrane disruptions by the peptides were evaluated by incubating bacterial suspension with peptides and then measuring the activity of enzymes leaked out of the cells. 100 μL of 10× concentration of peptide in water was incubated with 900 μL bacterial suspension (OD600 nm˜0.1) in respective buffer for 3 hours at room temperature with gentle rotation. Then the cells and debris were separated by centrifugation (10000 r.p.m. for 30 mins) and the supernatant was collected and tested for activity of enzymes that had leaked out of the bacterial cells. HCMAB was used as a positive control to cause 100% membrane disruption and water as a negative causing 0% disruption.
The outer membrane disruption was tested by using the activity of beta-lactamase present in the periplasmic space of E. coli ML35p. Peptides when disrupt the outer membrane enough to cause beta-lactamase to come out, the degree of disruption can be measured by the virtue of the kinetics of the enzyme and using a chromogenic cephalosporin substrate called nitrocefin. β-lactamase mediated hydrolyzed product of nitrocefin has an absorbance αmax=486 nm. Supernatant collected from the incubation of peptide with bacteria was added with nitrocefin solution in DPBS and incubated at 35° C. and continuous absorbance readings. The slope of the linear section of the absorbance curve (absorbance vs time), was used as a measure of membrane disruption and the % Disruption was calculated as: Equation 7: […]
Some of the ATRA1-variants were further tested for their ability to disrupt outer and inner membranes to form pores or disruptions sufficiently large so as to allow enzymes to leak out of their cellular compartments (cytoplasm or periplasmic space). For this purpose, two reporter molecules were used with one being the substrate of a cytoplasmic enzyme and the other was a substrate for an enzyme residing in the periplasmic space. One of the reporters, nitrocefin was the substrate for β-lactamase, which is present in the bacterial periplasm, whereas the other molecule, ONPG, was the substrate for β-galactosidase, which resides in the cytoplasm of E. coli ML35p strain. […] Similarly, β-galactosidase activity in the supernatants is evidence of inner membrane disruption and possible pore formation. When the aforesaid supernatants were tested for nitrocefin and ONPG hydrolysis, the corresponding absorbance increased with time (data not shown) indicating β-lactamase and β-galactosidase activity, respectively, and thus disruption of both the inner and outer membranes. The slopes of the increase in absorbance as a function of time provides the rate of enzyme activity. The enzyme activities in supernatants collected after incubation of bacteria with the quaternary ammonium surfactant, hexadecyltrimethylammonium bromide (HCMAB) was used as an internal reference for 100% membrane disruption. Enzyme activity for supernatants collected for cells incubated in the absence of peptide provided a reference for 0% membrane disruption. Bee venom peptide melittin was used as a positive control. […]

[6] = test system: E. coli ML35p outer membrane; experiment: NPN assay, outer membrane perturbation; assay type: cell-based, Escherichia coli; conditions: PBS; 25 μM peptide; 25 μM PMB = 100%
Experimental: as §4
NPN Assay. The outer membrane perturbation of bacteria was evaluated by incubating E. coli ML35p with peptides in presence of NPN. 100 mM NPN in acetone was supplemented proportionately to a bacterial suspension of OD600 nm˜0.5 to achieve a final concentration of 20 μM of NPN and the mixture was equilibrated for 30 mins. Then, 90 μL of the bacterial suspension containing 20 μM NPN was added with 10 μL of 250 μM peptide (10×) solution in water and scanned for fluorescence intensity (excitation=350 nm, emission=420 nm). The % Perturbation was calculated by considering PMB to be causing 100% Perturbation and water (without peptide) as 0% Perturbation. Each peptide was tested in triplicate in each of the three phosphate buffers used.
When peptides partition from the bulk aqueous environment to the cellular membranes, they may cause small defects in the membrane organization, a signature of adsorption of the peptides into the membranes. Such small defects are called membrane perturbations and can be evaluated by utilizing molecular probes. One such molecular probe is NPN, which is a hydrophobic molecule and is usually repelled to enter the hydrophobic interiors of the membrane by the polar headgroups of membrane-lipids. However, when small defects and gaps are caused during the adsorption of the peptides into the membranes, NPN can enter through those defects and in the hydrophobic environment of the membrane interior the molecule fluoresces, which can be measured for quantification of the extent of membrane-perturbation and peptide adsorption in the cellular membrane.

[7] = test system: leucocytes and T-cells; conditions: cited from earlier work
[8] = ~16 hours (overnight), reduced serum conditions

| Molecule | increase of EC50 in presence of albumin relative to EC50 in DPBS ([1]; DPBS + 4% (w/v) bovine serum albumin versus DPBS) | antimicrobial efficacy, in words ([1]; serum) | antimicrobial effectiveness, in words [2] | concentration over which significant toxicity was observed [3, 8] | antimicrobial efficacy, in words ([1]; DPBS (with Ca++ and Mg++), pH 7.4) | antimicrobial efficacy, in words ([1]; PBS (high / physiologically relevant ionic strength), pH 7.4) | antimicrobial efficacy, in words [4] | outer membrane disruption (β-lactamase activity) relative to HCMAB [5] | membrane perturbation with respect to PMB [6] | concentration over which toxicity was exhibited ([3]; ~6 hours, 10% fetal bovine serum) [µM] | cytotoxicity, in words [3, 8] | concentrations of significant cytotoxicity [7] [µM] |
| --- | --- | --- | --- | --- | --- | --- | --- | --- | --- | --- | --- | --- |
| Polymyxin B [PMB, reference compound] | approximately 3 fold | retained significant antimicrobial activities | effective | > 6 µM |  |  |  |  |  |  |  |  |
| KRFKKFFKKFK (SEQ ID NO: 11) [ATRA1-F] |  |  |  |  | lost activity in DPBS | more effective than ATRA1 | somewhat effective | intermediate | decreased slightly |  |  |  |
| CC[C@H](C)[C@H](NC(=O)[C@H](CCCCN)NC(=O)[C@H](CCC(=O)O)NC(=O)[C@H](CCCCN)NC(=O)[C@H](CO)NC(=O)[C@H](CCCCN)NC(=O)[C@H](CCCNC(=N)N)NC(=O)[C@H](Cc1ccccc1)NC(=O)[C@H](Cc1ccccc1)NC(=O)[C@H](CC(=O)O)NC(=O)CNC(=O)[C@H](CC(C)C)NC(=O)[C@@H](N)CC(C)C)C(=O)NCC(=O)N[C@@H](CCCCN)C(=O)N[C@@H](CCC(=O)O)C(=O)N[C@@H](Cc1ccccc1)C(=O)N[C@@H](CCCCN)C(=O)N[C@@H](CCCNC(=N)N)C(=O)N[C@H](C(=O)N[C@H](C(=O)N[C@@H](CCC(N)=O)C(=O)N[C@@H](CCCNC(=N)N)C(=O)N[C@H](C(=O)N[C@@H](CCCCN)C(=O)N[C@@H](CC(=O)O)C(=O)N[C@@H](Cc1ccccc1)C(=O)N[C@@H](CC(C)C)C(=O)N[C@@H](CCCNC(=N)N)C(=O)N[C@@H](CC(N)=O)C(=O)N[C@@H](CC(C)C)C(=O)N[C@H](C(=O)N1CCC[C@H]1C(=O)N[C@@H](CCCNC(=N)N)C(=O)N[C@H](C(=O)N[C@@H](CCC(=O)O)C(=O)N[C@@H](CO)C(=O)O)[C@@H](C)O)C(C)C)[C@@H](C)CC)C(C)C)[C@@H](C)CC [LL37] |  |  |  | Over 10 μM |  |  |  |  |  | > 10 | higher degrees of cytotoxicity | 13 to 25 |
